Values of other authors as cited in patent US20230139565A1 (GLANIS PHARMACEUTICALS, INC., priority 2020, published 2023).
Structures can show the parent of a compound that is named as a salt.

Tests used:
[1] = tested on: albumin and aphal-acid glycoprotein
[2] = not given; remark: listed apart in the source

Row | terminal half-life based on blood concentration (blood) [days] | time of peak concentration (following 200 mg oral dose) | peak concentration in blood (following 200 mg oral dose, blood) | plasma concentration (peak) (following 200 mg oral dose, plasma) | half-life (in vivo) [days] | volume of distribution (in vivo) | oral bioavailability (oral tablet) | protein binding [1] [%] | solubility in alcohol, chloroform, and in ether ([2]; alcohol, chloroform, ether) | solubility in water ([2]; water) | Structure (SMILES)
1 | 30 to 60 | around 3 hours | around 129.6 ng/ml | around 50.3 ng/ml | ~2.08 | high volume of distribution | about 75% | ~40 |  |  | CCN(CCO)CCCC(C)Nc1ccnc2cc(Cl)ccc12 (stereo not shown) [HCQ, Hydroxychloroquine]
2 |  |  |  |  |  |  |  |  | practically insoluble | freely soluble | CCN(CCO)CCCC(C)Nc1ccnc2cc(Cl)ccc12 (stereo not shown) [Hydroxychloroquine sulfate]
